Assay results published in patent US20020197281A1, “Composition cantaining a peptide and a pigment and the use thereof in darkening the skin” (priority 2001, published 2002).

How the values were obtained:
[1] = system: keratinocyte-melanocyte co-cultures (Human HaCaT keratinocytes, Human primary melanocytes); experiment: Induced pigmentation in keratinocyte-melanocyte co-cultures (DOPA staining, computerized image analysis); type: cell-based; conditions: three daily treatments; for Mean area: DOPA-stained relative pigmented area; for % increase: normalized to control
Description: The peptides Peptide 1 and Peptide 3 and various pigments were tested, alone or in combination, with keratinocyte-melanocyte cultures for their effect on cell pigmentation, using DOPA staining and computerized image analysis. The pigments that were tested were the pigmented natural extracts Bearberry extract from Alban Muller International (Vincennes, France) and Hedychium spicatum extract sold as Kapur Kachali from Amsar Private Limited (Indore, India), copper chloride from Sigma (St. Louis, Mo.) and the water-soluble melanin derivatives Melasyn-100™ from San-mar laboratories, Inc. (Elmsford, N.Y.) and MelanZe™ from Zylepsis (Ashford, Kent, United Kingdom). The pigments were tested at concentrations ranging from 0.0001%(W/V) to 1%(W/V) and the peptides were tested at 50 μM.
The assay was conducted in the following manner. Human HaCaT keratinocytes (Boukamp P., et al., J Cell Biol 106, 3, 761-771 (1988)) were maintained in Dulbecco's Modified Eagle's Medium (DMEM) containing 10% fetal bovine serum (FBS), 4.5 mg/ml glucose, 2 mM L-glutamine, 50 U/ml penicillin and 50 μg/ml streptomycin (Life Technologies, Gaithersburg, Md.). Cells were maintained at <80% confluency in 5% CO2 (v/v) and were used in experimental procedures up to culture passage 15. Human primary melanocytes (Clonetics, San Diego, Calif. or Cascade Biologics, Portland, Oreg.) were maintained according to manufacturer's instructions. To establish keratinocyte-melanocyte co-cultures, 6×10^4 melanocytes were plated in each well of a 24 well plate and maintained according to manufacturer's instructions.
Melanocytes were rinsed three times with melanocyte growth media without PMA and keratinocytes (6×10^4) were plated to establish the co-cultures in this media. Co-cultures were treated for three days with test peptides and pigments, and assayed for cell viability and pigment level on the forth day. Cell viability was assayed using alamarBlue™ (Acumed International, West Lake, Ohio) following manufacturer's instructions. No change in viability was observed following three daily treatments with all tested material. All in vitro experiments were performed in triplicates, and were repeated at least three times.
Following three daily treatments, the co-cultures were briefly fixed (10% buffered formalin from Fisher Scientific, 15 minutes), washed three times with Phosphate-buffered saline (PBS, from Life Technologies) and stained with L-3,4-Dihydroxyphenylalanine (DOPA, from Sigma, St. Louis, Mo.) 0.1% in PBS, for 5 hours at 37° C., followed by two PBS washes and formalin (10%, overnight) fixation. DOPA is a substrate for tyrosinase, therefore an increase in staining represents increased tyrosinase activity and pigment production. DOPA-stained monolayers were used for image analysis. All images were obtained and analyzed with Image Pro Plus 3.0 software (Media Cybernetics, Silver Spring, Md.). Parameters measured were surface area of stained material within melanocyte and keratinocytes and the total surface area of the cells in the culture, and the relative pigmented area was calculated. A value of 100% was assigned to untreated controls, and values of treatment groups were normalized to their relevant controls. In all experiments there was no difference between PBS-treated cells and untreated controls. Data are presented with standard deviation (SigmaPlot® 5.0, SPSS Science, Chicago, Ill.).
Forskolin (Sigma, St. Louis, Mo.), a known inducer of pigmentation, served as a positive control and a reference point. Forskolin was administered at 1% (W/V).

[2] = system: Dark skinned Yucatan microswine; experiment: Induced pigmentation in vivo, F&M-stained skin sections of topically treated swine; set-up: key: −1: Slight lightening; 0: No change; 1: Minimal increase in pigment deposition; 2: Increased pigment deposition; 3: Strong increase in pigment deposition, some increase in caps; 4: Strong increase in pigment deposition, strong increase in caps; conditions: topical twice a day, five days/week, eight or nine weeks; peptides 250 or 500 μM, pigments 1% or 5% (W/V), positive controls 1% (W/V); average of all sites of responsive swine
Description: Compositions of the present invention were tested for their ability to induce in vivo pigmentation in skin cells in the following experiment. Dark skinned Yucatan microswine (Charles River, Portland, Me.) were housed in appropriately sized cages in an environmentally controlled room with a 12-hour light-12-hour dark photoperiod and supplied with food and water ad libitum. Animal care was based on the “Guide for the Care and Use of Laboratory Animals”, NIH Publication No. 85-23. Twenty μl of test peptides were applied topically, twice a day, five days/week, for eight or nine weeks, on the dorsum of the swine. Treatments of individual swine were always arranged in a head to tail order on one side, and in a tail to head order on the other side of the animal. Biopsies were taken using standard techniques.
Sections from the skin biopsies were stained with Hematoxylin and Eosin (H&E), or with Fontana-Mason (F&M), using standard procedures (Sheenan D C, Hrapckak B B, eds., Theory and Practice of Histo-technology. p. 223, 277, The C.V. Mosby Co., St. Louis (1980)). F&M staining identifies silver nitrate reducing molecules. In skin, this non-specific stain identifies primarily melanin. At least three sections per biopsy were processed. Each experiment was repeated at least three times.
Swine were treated with either: the known skin darkening agent forskolin (Sigma) or with a Coleus forskoli extract (ATZ Naturals, Englewood Cliffs, N.J.) which contains forskolin, as a positive control at 1% (W/V); pigments at 1% or 5% (W/V); peptides of this invention at 250 μM or 500 μM; and combinations of such peptides at 250 μM or 500 μM with pigments at 1% (W/V). Pigments tested include pigmented natural extracts (i.e., Bearberry extract and Hedychium spicatum extract) and synthetic compounds (i.e., the soluble melanin compound Melasyn-100™). These test compounds were dissolved in ethanol: propylene glycol 70:30 (v/v). […]
F&M-stained histological skin sections were evaluated for the change in pigment deposition within the treated site. […]

[Cl][Cu][Cl] [CuCl2, copper chloride]
Mean area ([1]; pigment alone 0.001% (W/V)): 0.064 | % increase ([1]; pigment alone 0.001% (W/V)): 220%

C=C[C@@]1(C)CC(=O)[C@]2(O)[C@@]3(C)[C@@H](O)CCC(C)(C)[C@@H]3[C@H](O)[C@H](OC(C)=O)[C@@]2(C)O1 [Forskolin, reference compound]
Mean area ([1]; positive control 1% (W/V)): 0.067 | % increase ([1]; positive control 1% (W/V)): 231.0% | Score (change in pigment deposition) [2]: 1

H2-Leu-Ile-Gly-Arg-NH2 (H-LIGR-NH2) [Peptide 1]
Mean area ([1]; peptide alone 50 μM): 0.080 | % increase ([1]; peptide alone 50 μM): 279% | Score (change in pigment deposition) [2]: 1-2

H2-Ser-Leu-Ile-Gly-Arg-Leu-NH2 (H-SLIGRL-NH2) [Peptide 3]
Score (change in pigment deposition) [2]: 2-3
